Consider 4 molecules from US7968561B2, “Steroidal compounds as steroid sulphatase inhibitors” (Sterix Limited, priority 2006, dated 2011).

By IC50 is commonly meant the point on the concentration scale where inhibition reaches its midpoint.

The target in data set [1] is T1, dehydroepiandrosterone sulphatase (DHA-STS) (Rattus norvegicus, UniProt P15589).
T1 construct: host or cells: rat liver
T1 sequence (P15589 20-577): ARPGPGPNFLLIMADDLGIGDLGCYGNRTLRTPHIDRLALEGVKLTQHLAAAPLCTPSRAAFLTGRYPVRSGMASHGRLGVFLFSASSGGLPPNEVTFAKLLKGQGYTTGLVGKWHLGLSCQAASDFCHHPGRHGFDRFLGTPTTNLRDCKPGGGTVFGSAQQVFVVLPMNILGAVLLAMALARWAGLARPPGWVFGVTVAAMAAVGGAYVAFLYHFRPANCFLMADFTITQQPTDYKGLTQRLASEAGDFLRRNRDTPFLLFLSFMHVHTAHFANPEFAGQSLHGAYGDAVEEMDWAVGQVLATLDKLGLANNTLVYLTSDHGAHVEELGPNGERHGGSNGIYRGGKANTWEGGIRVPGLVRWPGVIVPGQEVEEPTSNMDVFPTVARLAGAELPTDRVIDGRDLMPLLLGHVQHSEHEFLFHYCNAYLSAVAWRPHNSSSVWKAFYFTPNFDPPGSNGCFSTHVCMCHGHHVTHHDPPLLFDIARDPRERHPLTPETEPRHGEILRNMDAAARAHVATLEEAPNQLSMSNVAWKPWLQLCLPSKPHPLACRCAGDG
The note with it: administered orally or subcutaneously; cited from earlier work.

The target in data set [2] is T2, E1-STS (Rattus norvegicus, UniProt P15589).
T2 construct: host or cells: rat liver
T2 sequence (P15589 20-577): T1 sequence (P15589 20-577)
The note with it: administered orally or subcutaneously; cited from earlier work.

The target in data set [3] is T3, E1-STS (Homo sapiens, UniProt P08842).
T3 construct: endogenous in cells; host or cells: intact MCF-7 cells
T3 sequence (P08842 22-583): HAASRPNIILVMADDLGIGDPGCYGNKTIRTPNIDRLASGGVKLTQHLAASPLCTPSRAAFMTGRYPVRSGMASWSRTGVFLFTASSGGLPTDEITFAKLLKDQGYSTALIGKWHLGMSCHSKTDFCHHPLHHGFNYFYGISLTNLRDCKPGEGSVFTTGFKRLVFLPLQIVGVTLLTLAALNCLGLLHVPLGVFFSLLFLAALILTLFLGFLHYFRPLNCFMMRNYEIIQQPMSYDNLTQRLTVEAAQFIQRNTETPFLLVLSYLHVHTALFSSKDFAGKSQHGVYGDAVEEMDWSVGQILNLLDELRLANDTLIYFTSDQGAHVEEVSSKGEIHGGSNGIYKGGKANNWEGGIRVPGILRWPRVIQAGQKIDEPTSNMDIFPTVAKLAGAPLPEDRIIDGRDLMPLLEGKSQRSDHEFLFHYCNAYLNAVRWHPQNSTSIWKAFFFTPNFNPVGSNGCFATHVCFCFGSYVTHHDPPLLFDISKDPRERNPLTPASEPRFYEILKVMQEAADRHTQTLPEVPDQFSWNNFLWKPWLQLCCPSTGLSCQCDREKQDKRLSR
More on the design: dose or concentration left out as unconfirmed. The note with it: intact MCF-7 cells; cited from earlier work.

The conditions of data set [4]: rats; cited from earlier work.
Data set [5] deals with T4, STS (Mus musculus, UniProt P50427).
T4 construct: from tissue; host or cells: liver of MF-1 nude mice, homogenate
T4 sequence (P50427 23-624): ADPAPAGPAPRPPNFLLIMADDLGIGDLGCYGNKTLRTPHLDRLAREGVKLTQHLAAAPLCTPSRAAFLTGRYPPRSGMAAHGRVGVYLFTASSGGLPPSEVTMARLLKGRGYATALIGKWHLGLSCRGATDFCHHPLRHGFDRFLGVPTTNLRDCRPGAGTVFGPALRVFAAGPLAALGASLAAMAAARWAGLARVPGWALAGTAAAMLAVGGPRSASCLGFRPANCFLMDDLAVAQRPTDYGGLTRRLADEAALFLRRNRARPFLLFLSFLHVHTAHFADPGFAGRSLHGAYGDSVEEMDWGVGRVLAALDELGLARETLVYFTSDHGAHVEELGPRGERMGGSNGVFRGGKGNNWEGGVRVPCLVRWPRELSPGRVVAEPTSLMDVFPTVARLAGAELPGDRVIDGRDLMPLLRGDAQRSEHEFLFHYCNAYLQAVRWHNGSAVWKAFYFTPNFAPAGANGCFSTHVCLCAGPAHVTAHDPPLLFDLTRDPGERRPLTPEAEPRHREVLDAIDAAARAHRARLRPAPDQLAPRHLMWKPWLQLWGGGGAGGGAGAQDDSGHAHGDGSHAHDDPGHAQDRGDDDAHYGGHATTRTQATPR
Description: Liver STS activity in MCF-7STS xenograft mice. It is filed as in vivo. The note with it: Study 2: 1 mg/kg p.o. once per week. As for the experimental part:
(§1) Ovariectomised, athymic female MF-1 nude mice (nu/nu) (age 6-8 weeks) were obtained from Harlan Olac. Twenty four hours before the inoculation of MCF-7STS cells animals were injected s.c. with estradiol sulphate (E2S). On the day of inoculation 5×10^6 MCF-7STS cells (50 μl in Matrigel) were injected s.c. into the right flank of the mice. After cell inoculation mice were injected with E2S (100 μg/50 μl) and received another injection of these steroids 24 h later. Mice then received E2S 3 times per week until the end of the study. When tumours had reached approximately 80 mm^3 dosing was initiated with compounds being administered orally (100 μl; vehicle 10% THF: 90% propylene glycol) at 1 mg/kg. Tumour measurements and the weight of animals were recorded weekly. Samples of tumour and liver tissues together with blood were collected at a number of time points after the cessation of dosing.
Samples of tumour or liver tissues were homogenised in phosphate buffered saline (pH 7.4 containing 250 mM sucrose). Duplicate aliquots were incubated for 4 h with [^3H-E1S] […] An aliquot of the toluene was removed and the ^3H and ^14C radioactivity measured by liquid scintillation spectrometry. The mass of oestrone sulphate hydrolysed was calculated form the ^3H counts detected, corrected for procedural losses.

The test system of data set [6] is MCF-7STS cells (MCF-7 cells over expressing STS). Description: Growth of E2S-stimulated MCF-7STS xenograft tumours in nude mice. It is filed as in vivo. The conditions noted are these: Study 2: 1 mg/kg p.o. once per week for 7 weeks.
Description: Ovariectomised, athymic female MF-1 nude mice (nu/nu) (age 6-8 weeks) were obtained from Harlan Olac. Twenty four hours before the inoculation of MCF-7STS cells animals were injected s.c. with estradiol sulphate (E2S). On the day of inoculation 5×10^6 MCF-7STS cells (50 μl in Matrigel) were injected s.c. into the right flank of the mice. After cell inoculation mice were injected with E2S (100 μg/50 μl) and received another injection of these steroids 24 h later. Mice then received E2S 3 times per week until the end of the study. […] Tumour measurements and the weight of animals were recorded weekly. Samples of tumour and liver tissues together with blood were collected at a number of time points after the cessation of dosing.
Tumours were measured weekly and their volumes calculated using the equation length×width^2/2.
Student's t test was used to assess the significance of the differences in tumour volumes for the different groups.
The target in data set [7] is T5, steroid sulphatase (STS) (Homo sapiens, UniProt P08842).
T5 construct: endogenous in cells; host or cells: JEG-3 cells
T5 sequence (P08842 22-583): T3 sequence (P08842 22-583)
The data set can be described thus: IC50 for steroid sulphatase inhibition measured in JEG-3 cells. It is filed as cell-based.

Data set [8] concerns the target T6, STS (Rattus norvegicus, UniProt P15589).
T6 construct: from tissue; host or cells: rat liver
T6 sequence (P15589 20-577): T1 sequence (P15589 20-577)
Description: STS activity in rat livers 15 days after a single p.o. dose. It is filed as in vivo. The conditions noted are these: rat liver.

The nature of data set [9]: Plasma oestradiol concentrations by radioimmunoassay. The note with it: Study 2: once weekly dosing, extended period after cessation of dosing. It is filed as in vivo, mice. As for the experimental part: as §1
Plasma oestradiol concentrations were measured by a specific radioimmunoassay procedure.

`C[C@]12CC[C@@H]3c4ccc(OS(N)(=O)=O)cc4CC[C@H]3[C@@H]1CCC2=O` [EMATE, estrone-3-O-sulfamate]: the “inhibition of rat liver DHA-STS activity” value in data set [1] is recorded as 99%. The “inhibition of rat liver E1-STS activity” value in [2] is 99%. Further, the “inhibition of E1-STS activity” value in [3] was “more than 99%”. Besides, in data set [4], the “oral uterotrophic activity relative to oestradiol” value is given as 100 times.

As to `NS(=O)(=O)Oc1ccc2c3c(c(=O)oc2c1)CCCCC3` [STX64], in data set [5], the “reduction of liver STS activity” value is 25-50%. The tumour growth entry in data set [6] is “ineffective”.

`CCCN1C(=O)CC2C3CCc4cc(OS(N)(=O)=O)ccc4C3CC[C@]2(C)C1=O` (some centres unmarked) [STX213] had a half-inhibitory concentration (IC50) in data set [7] of 0.18 nM. Moreover, in data set [8], the STS activity recovered worked out at 69% and the “inhibition of STS activity” value is listed as 31%.

As to `C[C@]12CCC3c4ccc(OS(N)(=O)=O)cc4CCC3C1CC(=O)N(CCC(F)(F)F)C2=O` (some centres unmarked) [STX1938, 3-Sulfomoyloxy-N-(3,3,3-trifluoropropyl)-16,17-seco-Estra-1,3,5(10)-triene-16,17-imide], in [9], the plasma oestradiol levels result is listed as “significantly reduced”. Moreover, the “inhibition of liver STS” value in [5] is listed as “almost complete inhibition”.
